Source: ChEMBL document CHEMBL1201862, “PubChem BioAssay data set” (2004)
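Values below derive from 48-hour exposures of cells grown in 96-well plates, with endpoints linearly interpolated between the two concentrations bracketing the appropriate inhibition level. Abbreviation: GI50, concentration required for 50% inhibition of growth.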 Activity calls are given as the source filed them. Cut-off read from the data, not from the text of the source: active = GI50 up to about 1.1 µM and inactive = higher.

How the values were obtained:
Assay in all cases: DTP human tumour cell line panel, 48 h
[1] = system: TK-10
[2] = system: HCT-116
[3] = system: A549
[4] = system: UACC-62
[5] = system: 786-0
[6] = system: UO-31
[7] = system: DMS-114
[8] = system: SK-MEL-2
[9] = system: SNB-19
[10] = system: COLO 205
[11] = system: OVCAR-8
[12] = system: NCI-H460
[13] = system: SF-295
[14] = system: K562
[15] = system: NCI-H226
[16] = system: SK-MEL-28
[17] = system: ACHN
[18] = system: HOP-92
[19] = system: BT-549
[20] = system: T47D

Measured: GI50

Cn1c(=O)c(NC(=O)C(Cl)(Cl)Cl)nc2ccccc21
inactive: [1] > 100 µM | [2] > 100 µM | [3] > 100 µM | [4] > 100 µM | [5] > 100 µM | [6] > 100 µM | [7] > 100 µM | [8] > 100 µM | [9] > 100 µM | [10] > 100 µM | [11] > 100 µM | [12] > 100 µM | [13] > 100 µM | [14] > 100 µM | [15] 81.8 µM | [16] > 100 µM

O=C(Nc1c(-c2nc3ccccc3[nH]2)sc(=S)n1-c1ccccc1)c1ccccc1
inactive: [1] > 100 µM | [17] > 100 µM | [3] > 100 µM | [4] > 100 µM | [5] 91.2 µM | [6] > 100 µM | [7] 98.9 µM | [8] > 100 µM | [9] 82 µM | [10] > 100 µM | [11] 88.9 µM | [13] 97.5 µM | [14] > 100 µM | [15] 24.5 µM | [16] > 100 µM

CC1(CO)C(=O)OC12CCCCC2 (configuration not stated)
inactive: [1] > 100 µM | [2] > 100 µM | [3] > 100 µM | [4] > 100 µM | [5] > 100 µM | [6] 63.4 µM | [7] > 100 µM | [8] > 100 µM | [9] > 100 µM | [10] > 100 µM | [11] > 100 µM | [13] > 100 µM | [18] > 100 µM | [14] > 100 µM | [15] > 100 µM | [16] > 100 µM

COc1ccc(NC(=O)/C(=N/NC(N)=S)C2C(=O)NC(=S)NC2=O)c(OC)c1
inactive: [1] > 100 µM | [2] > 100 µM | [17] > 100 µM | [3] > 100 µM | [4] > 100 µM | [5] > 100 µM | [19] > 100 µM | [6] > 100 µM | [8] > 100 µM | [9] > 100 µM | [20] > 100 µM | [10] > 100 µM | [11] > 100 µM | [12] > 100 µM | [13] > 100 µM | [18] > 100 µM | [14] > 100 µM | [15] > 100 µM | [16] > 100 µM

Cc1ccc([N+](=O)[O-])cc1NC(=O)c1cccc([N+](=O)[O-])c1O
inactive: [1] 31.2 µM | [17] 14.4 µM | [3] 22.4 µM | [4] 3.85 µM | [5] 28.9 µM | [6] 6.27 µM | [7] 8.73 µM | [8] 7.98 µM | [9] 14.1 µM | [10] 17.1 µM | [11] 23 µM | [12] 12.2 µM | [13] 18 µM | [14] 12.3 µM | [15] 13.6 µM | [16] 11.5 µM

CN1c2ccccc2S(=O)(=O)n2c(COc3ccc(Cl)cc3)nnc21
inactive: [1] > 100 µM | [2] > 100 µM | [17] > 100 µM | [3] > 100 µM | [4] 56.2 µM | [5] 41.5 µM | [19] 50.6 µM | [6] > 100 µM | [8] > 100 µM | [9] 57.4 µM | [20] > 100 µM | [10] > 100 µM | [11] > 100 µM | [12] > 100 µM | [13] 27 µM | [18] 28 µM | [14] > 100 µM | [15] 92.5 µM | [16] > 100 µM

C/C(CC(O)(C(F)(F)Cl)C(F)(F)Cl)=N\Nc1ccccc1
inactive: [1] 38.4 µM | [2] 34.5 µM | [17] 27 µM | [3] 37.2 µM | [4] 43.3 µM | [5] 41.1 µM | [19] 33.6 µM | [6] 31.2 µM | [8] 21.5 µM | [9] 36.9 µM | [20] 28.2 µM | [10] 31.8 µM | [11] 36.7 µM | [12] 29.7 µM | [13] 42.3 µM | [18] 21.7 µM | [14] 35.5 µM | [15] 25.2 µM | [16] 47.2 µM

CSc1n/c(=N\c2ccccc2)sn1-c1ccccc1
inactive: [1] 26.7 µM | [2] 8.43 µM | [17] 18.9 µM | [3] 16.6 µM | [4] 4.76 µM | [5] 16.6 µM | [6] 17.3 µM | [7] 3.15 µM | [8] 17.1 µM | [9] 17.1 µM | [10] 7.73 µM | [11] 21.7 µM | [12] 4.79 µM | [13] 21.5 µM | [14] 3.24 µM | [15] 15.5 µM | [16] 14.1 µM

CC(C)CC(=O)OC[n+]1ccc(-c2c(COC(=O)NC(C)C)c(COC(=O)NC(C)C)c3n2CCC3)cc1
inactive: [1] > 100 µM | [2] > 100 µM | [17] 38.3 µM | [3] > 100 µM | [4] 83.8 µM | [5] > 100 µM | [19] > 100 µM | [6] > 100 µM | [8] > 100 µM | [9] > 100 µM | [20] > 100 µM | [10] > 100 µM | [11] > 100 µM | [12] 76.9 µM | [13] > 100 µM | [18] > 100 µM | [14] > 100 µM | [15] > 100 µM | [16] > 100 µM

O=C(O)C1CCCCN1C(=O)c1ccccc1 (configuration not stated)
inactive: [1] > 100 µM | [2] > 100 µM | [17] > 100 µM | [3] > 100 µM | [4] > 100 µM | [5] > 100 µM | [6] > 100 µM | [7] > 100 µM | [9] > 100 µM | [10] > 100 µM | [11] > 100 µM | [12] > 100 µM | [13] > 100 µM | [18] > 100 µM | [14] > 100 µM | [16] > 100 µM

O=C(O)CCSC(=S)Nc1cccc(F)c1
inactive: [1] 43.4 µM | [2] 97.3 µM | [17] 23.8 µM | [3] 77.4 µM | [4] 13.4 µM | [5] > 100 µM | [6] > 100 µM | [7] 19.6 µM | [9] 45.2 µM | [10] 57.5 µM | [11] 37.8 µM | [12] 83.9 µM | [13] 28.7 µM | [18] 25 µM | [14] 32.3 µM | [15] 33.7 µM | [16] 28 µM

Cc1cccc(O)c1-c1nnc(CCCCCCCCc2nnc(-c3c(C)cccc3O)n2N)n1N
inactive: [1] > 41.4 µM | [2] 72.3 µM | [17] > 85.7 µM | [3] > 46.5 µM | [4] 66.7 µM | [5] 2.67 µM | [19] 15 µM | [6] 68.5 µM | [8] 38.3 µM | [9] 41.2 µM | [20] > 100 µM | [10] > 31.6 µM | [11] 1.86 µM | [12] 24.3 µM | [13] 51.6 µM | [18] 18 µM | [14] > 100 µM | [15] 55.7 µM | [16] > 50.2 µM

O=c1c2c3c(sc2nc(S)n1-c1ccccc1)CCCc1ccc([N+](=O)[O-])cc1-3
inactive: [1] > 100 µM | [2] 39.1 µM | [17] 81.3 µM | [3] 42.9 µM | [4] 26.7 µM | [5] 54 µM | [19] 24.8 µM | [6] 26.9 µM | [8] > 100 µM | [9] 40.8 µM | [20] 17.5 µM | [10] > 100 µM | [11] 28.8 µM | [12] 36 µM | [13] 30.4 µM | [18] 20.6 µM | [14] 11.7 µM | [15] > 100 µM | [16] > 100 µM

CC1CC2CCCC(=O)C2=C(O)O1 (configuration not stated)
inactive: [1] > 100 µM | [2] > 100 µM | [17] > 100 µM | [3] > 100 µM | [4] > 100 µM | [5] > 100 µM | [19] 81.5 µM | [6] > 100 µM | [8] > 100 µM | [9] 31.6 µM | [20] > 100 µM | [10] > 100 µM | [11] > 100 µM | [12] > 100 µM | [13] > 100 µM | [18] > 100 µM | [14] > 100 µM | [15] > 100 µM | [16] > 100 µM

CC(=O)O[C@]12CCCCCCC1C1(O)C(O)CCC[C@H]12 (some centres not stated)
inactive: [1] > 100 µM | [2] > 100 µM | [17] > 100 µM | [3] > 100 µM | [4] > 100 µM | [5] > 100 µM | [6] > 100 µM | [7] > 100 µM | [8] > 100 µM | [9] > 100 µM | [10] > 100 µM | [11] > 100 µM | [12] > 100 µM | [13] > 100 µM | [14] > 100 µM | [15] > 100 µM | [16] > 100 µM

O=C(O)C(Br)C(Br)c1ccccc1[N+](=O)[O-] (configuration not stated)
inactive: [1] > 100 µM | [2] > 100 µM | [17] > 100 µM | [3] > 100 µM | [4] > 100 µM | [5] > 100 µM | [19] > 100 µM | [6] 5.46 µM | [8] > 100 µM | [9] > 100 µM | [20] > 100 µM | [10] > 100 µM | [11] > 100 µM | [12] > 100 µM | [13] > 100 µM | [18] > 100 µM | [14] > 100 µM | [15] > 100 µM | [16] > 100 µM
